Laboratory results: patent publication US9808443B1, “Cyclooxygenase inhibitors” (KING SAUD UNIVERSITY, priority 2016, dated 2017)

Tests used:
[1] = tested on: carrageenan-induced rat paw edema; experiment: carrageenan-induced rat paw edema method (anti-inflammatory activity); type: in vivo; conditions: for anti-inflammatory activity (in words): compared with standard drug indomethacin; for anti-inflammatory activity, % inhibition of paw edema: equimolar oral dose, rat
Protocol: For the experimental results described below, healthy male albino rats (200 g-220 g) were used for the study. The animals were kept in standard plastic animal cages in groups of six animals each with 12 hour light and dark cycle at 25±2° C. The rats were fed on standard rat chow and provided water ad libitum. The animals were acclimatized to laboratory conditions for a week prior to experiments. Anti-inflammatory activity of the synthesized compounds S1-S18 was determined by the carrageenan-induced rat paw edema method. The compounds were tested at equimolar oral dose and were compared with the standard drug indomethacin. […]. Three compounds, namely S14, S7 and S3 containing R=2,4,5-trimethoxyphenyl; […].
Anti-inflammatory activity was determined by a carrageenan-induced rat paw edema method. Male rats weighing 200 g were housed in a room with a controlled temperature and 12 hour light/12 hour dark cycle, housed in a specific pathogen free environment, and fed standard rodent chow and given water ad libitum. Each treatment group and vehicle group consisted of six randomly assigned animals. Compounds were administered p.o. suspension. Paw edema was induced by intradermal injection of 50 μL of 1% carrageenan into the sub plantar region of the right hind paw, after one hour of compound administration. […] The control group received only the vehicle. Increase in paw edema was compared with that in the control group and percent inhibition was calculated taking the values in the control group as 0% inhibition.

[2] = tested on: nociceptive response on hot plate; experiment: hot plate test (analgesic activity); type: in vivo; set-up: concentration or dose not given beside the values; conditions: hot plate 58° C.; mice; 120 min after injection
Protocol: Male albino Swiss mice (25 g body weight) were divided into various groups (n=6). Each mouse was initially placed on a hot plate thermostatically maintained at 58° C. […] This time was considered as the control reaction time. A cut-off time of 60 s was used to avoid damage to the paws. To test the analgesic activity of the compounds, each group of mice was treated with one dose of the test compounds. The reaction time was then retested at 0 hour and 120 min after injection (each animal acted as its own control). The percentage changes in the reaction were then calculated.

[3] = tested on: gastric mucosa; conditions: rat, in vivo
Protocol: For acute ulcerogenesis testing, albino rats were divided into different groups consisting of six animals in each group. […] Control rats received p.o. administration of vehicle (suspension of 1% methyl cellulose). Food (but not water) was removed 24 hours before administration of the test compounds. After the drug treatment, the rats were fed a normal diet for 17 hours and then sacrificed. The stomach was removed and opened along the greater curvature, washed with distilled water and cleaned gently by dipping in saline. The mucosal damage was examined by means of a magnifying glass. For each stomach, the mucosal damage was assessed according to the following scoring system: 0.5 redness; 1.0 spot ulcers; 1.5 hemorrhagic streaks; 2.0 ulcers <3 but ≦5; 3.0 ulcers >5. All of the compounds were tested at equimolar oral doses.

[4] = tested on: ethanol-induced gastric ulcer; experiment: ethanol induced ulcer model (gastro-protective activity: ulcer index, mucus, PAS staining, histology); type: in vivo, rat; conditions: for Ulcer index Mean ± SEM: pretreatment orally (S3 25.6 mg/kg, indomethacin 25 mg/kg) 1 hour before ethanol 95% 20 mL/kg, rats
Description: Gastric mucus plays crucial role in gastro-protection. […] The mucus was formed from mucin-type glycoprotein. The mucus gel adhering to the gastric mucosal surface defends the epithelium beneath against acid, pepsin and necrotizing agents, such as ethanol and indomethacin. […] Gastric wall mucus coating might be relieved in the repair of the damaged gastric epithelium. […] The rats were grouped into five groups (n=6). Group I and II received saline solution and served as negative-control and ulcer-control, respectively. […] The animals were sacrificed 1 hour later under anesthesia and their stomachs were quickly removed for further studies. Periodic acid-Schiff (PAS) staining was used to observe the glycogen level in control and pretreated animals. […] Ethanol-induced gastric ulcers result from several mechanisms, including reduction of gastric mucus and impaired mucosal permeability, and leads to increased leakage of hydrogen ions from the lumen and decreased transluminal membrane potential difference. With regard to the gross gastric lesion evaluation, the stomach of each rat was opened along the greater arc and washed with saline water to remove gastric contents. Gastric ulcers appear as elongated bands on the gastric mucosa with hemorrhagic lesions being parallel to the long axis of the stomach. The mucosa was assessed for damage under dissecting microscope (1.8×) and a planimeter was used to measure the ulcers area (hemorrhagic lesions). The length and width of each lesion were measured and the sum of the area of all lesions for each stomach was expressed as the ulcer area (mm^2). To determine mucus production of the gastric mucosa, the gastric mucosa of each rat was gently scraped using a glass slide and the mucus obtained was weighed using a precision electronic balance. For the histologic studies, gastric tissues were collected and fixed in 10% formalin after sacrifice. Then, each sample was embedded in paraffin and cut into 5 μm thick slices for morphological and pathological evaluation. Tissue sections were stained with hematoxylin and eosin (H & E) and examined under a light microscope.

[5] = tested on: COX-1; experiment: Western blot of COX-1 expression in rat gastric mucosa damaged by ethanol; type: in vivo; conditions: ethanol induced model, S3 25.6 mg/kg, indomethacin 25 mg/kg

Structure (SMILES) | melting point | analgesic activity (percentage change in reaction time) [2] | other results
COc1ccc2[nH]c(C)c(CC(=O)N/N=C/c3ccccc3[N+](=O)[O-])c2c1 [Compound S4, 2-(5-methoxy-2-methyl-1H-indol-3-yl)-N′-[(E)-(2-nitrophenyl)methylidene] acetohydrazide] | 210 to 212 °C |  | 
COc1ccc2[nH]c(C)c(CC(=O)N/N=C/c3ccc(Cl)cc3)c2c1 [Compound S5, N′-[(E)-(4-chlorophenyl)methylidene]-2-(5-methoxy-2-methyl-1H-indol-3-yl)acetohydrazide] | 180 to 182 °C |  | 
COc1ccc2[nH]c(C)c(CC(=O)N/N=C/c3ccc(Cl)cc3Cl)c2c1 [Compound S6, N′-[(E)-(2,4-dichlorophenyl)methylidene]-2-(5-methoxy-2-methyl-1H-indol-3-yl)acetohydrazide] | 238 to 240 °C |  | 
COc1ccc2[nH]c(C)c(CC(=O)N/N=C/c3ccc(OC)c(OC)c3)c2c1 [Compound S7, 2-(5-methoxy-2-methyl-1H-indol-3-yl)-N′-[(E)-(3,4-dimethoxyphenyl)methylidene] acetohydrazide] | 210 to 212 °C | 47.72% | anti-inflammatory activity (in words) [1]: most potent compounds with significant anti-inflammatory activity; ulcerogenic activity (in words) [3]: less ulcerogenic than the reference drug indomethacin
COc1ccc2[nH]c(C)c(CC(=O)N/N=C/c3ccccc3OC)c2c1 [Compound S8, 2-(5-methoxy-2-methyl-1H-indol-3-yl)-N′-[(E)-(2-methoxyphenyl)methylidene] acetohydrazide] | 220 to 222 °C |  | 
COc1ccc2[nH]c(C)c(CC(=O)N/N=C/c3ccc(O)cc3)c2c1 [Compound S9, N-[(E)-(4-hydroxyphenyl)methylidene]-2-(5-methoxy-2-methyl-1H-indol-3-yl)acetohydrazide] |  | 55.81% | 
COc1ccc2[nH]c(C)c(CC(=O)N/N=C/c3cccc(O)c3)c2c1 [Compound S10, N′-[(E)-(3-hydroxyphenyl)methylidene]-2-(5-methoxy-2-methyl-1H-indol-3-yl)acetohydrazide] | 145 to 147 °C | 62.50% | 
COc1ccc2[nH]c(C)c(CC(=O)N/N=C/c3ccc(N(C)C)cc3)c2c1 [Compound S11, 2-(5-methoxy-2-methyl-1H-indol-3-yl)-N′-{(E)-[4-(dimethylamino)phenyl]methylidene}acetohydrazide] | 200 to 202 °C |  | 
COc1cccc(/C=N/NC(=O)Cc2c(C)[nH]c3ccc(OC)cc23)c1 [Compound S12, 2-(5-methoxy-2-methyl-1H-indol-3-yl)-N′-[(E)-(3-methoxyphenyl)methylidene] acetohydrazide] | 195 to 197 °C |  | 
CCOc1ccc(/C=N/NC(=O)Cc2c(C)[nH]c3ccc(OC)cc23)cc1 [Compound S13, N′-[(E)-(4-ethoxyphenyl)methylidene]-2-(5-methoxy-2-methyl-1H-indol-3-yl)acetohydrazide] | 213 to 215 °C |  | 
COc1ccc2[nH]c(C)c(CC(=O)N/N=C/c3cc(OC)c(OC)cc3OC)c2c1 [Compound S14, 2-(5-methoxy-2-methyl-1H-indol-3-yl)-N′-[(E)-(2,4,5-trimethoxyphenyl)methylidene]acetohydrazide] | 238 to 240 °C | 70.27% | anti-inflammatory activity (in words) [1]: most potent compounds with significant anti-inflammatory activity; ulcerogenic activity (in words) [3]: less ulcerogenic than the reference drug indomethacin
COc1ccc2[nH]c(C)c(CC(=O)N/N=C/c3ccc(OC)c(OC)c3OC)c2c1 [Compound S15, 2-(5-methoxy-2-methyl-1H-indol-3-yl)-N′-[(E)-(2,3,4-trimethoxyphenyl)methylidene]acetohydrazide] | 250 to 252 °C |  | 
COc1ccc2[nH]c(C)c(CC(=O)N/N=C/c3cc(OC)c(OC)c(OC)c3)c2c1 [Compound S16, 2-(5-methoxy-2-methyl-1H-indol-3-yl)-N′-[(E)-(3,4,5-trimethoxyphenyl)methylidene]acetohydrazide] | 233 to 235 °C |  | 
COc1cc(OC)c(/C=N/NC(=O)Cc2c(C)[nH]c3ccc(OC)cc23)c(OC)c1 [Compound S17, 2-(5-methoxy-2-methyl-1H-indol-3-yl)-N′-[(E)-(2,4,6-trimethoxyphenyl)methylidene]acetohydrazide] | 230 to 232 °C | 61.53% | 
COc1ccc(/C=N/NC(=O)Cc2c(C)[nH]c3ccc(OC)cc23)c(OC)c1 [Compound S18, 2-(5-methoxy-2-methyl-1H-indol-3-yl)-N′-[(E)-(2,4-dimethoxyphenyl)methylidene]acetohydrazide] | 170 to 172 °C |  | 
COc1ccc2c(c1)c(CC(=O)O)c(C)n2C(=O)c1ccc(Cl)cc1 [indomethacin, reference compound] |  |  | anti-inflammatory activity, % inhibition of paw edema ([1]; after 2 hours): 77.23%; anti-inflammatory activity, % inhibition of paw edema ([1]; after 4 hours): 76.89%; histology of gastric tissue (in words) ([4]; S3 25.6 mg/kg, indomethacin 25 mg/kg, ethanol induced ulcer): severe ulceration in comparison with the ethanol induced ulceration; PAS staining of gastric mucosa (in words) ([4]; pretreated rats, ethanol induced ulcer): did not exhibit this magenta staining color of PAS; Ulcer index Mean ± SEM [4]: 12.34±0.73 mm^2; Ulcer index Mean ± SEM ([4]; listed as Indomethacin): 12.34 ± 0.73 mm^2; COX-1 expression / inhibition by Western blot (in words) [5]: potent COX-1 inhibitor
